Activity calls are given as the source filed them.
What was measured:
Assay type in all cases: functional, organism-based
[1] = tested on: Mus musculus; experiment: Activation of Nrf2 in cigarette smoke-predisposed BALB/c mouse model of NTHi-inflammation assessed as increase in lung GCLM expression at 5 and 10 mg/kg, ip administered post 1 and 24 hrs of NTHi-challenge by RT-PCR method
[2] = tested on: Mus musculus; experiment: Induction of Nrf2 nuclear translocation in cigarette smoke-predisposed BALB/c mouse model of NTHi-inflammation assessed as Nrf2 binding to antioxidant response element consensus DNA binding site at 5 and 10 mg/kg, ip administered post 1 and 24 hrs of NTHi-challenge by ELISA
[3] = tested on: Mus musculus; experiment: Antiinflammatory activity in cigarette smoke-predisposed BALB/c mouse model of NTHi-inflammation assessed as suppression of lung IL-1 beta level at 5 and 10 mg/kg, ip administered post 1 and 24 hrs of NTHi-challenge by ELISA
[4] = tested on: Mus musculus; experiment: Antiinflammatory activity in cigarette smoke-predisposed BALB/c mouse model of NTHi-inflammation assessed as suppression of lung 8-OHdG level at 5 and 10 mg/kg, ip administered post 1 and 24 hrs of NTHi-challenge by ELISA
[5] = tested on: Mus musculus; experiment: Activation of Nrf2 in cigarette smoke-predisposed BALB/c mouse model of NTHi-inflammation assessed as increase in lung OH-1 expression at 5 and 10 mg/kg, ip administered post 1 and 24 hrs of NTHi-challenge by RT-PCR method
[6] = tested on: Mus musculus; experiment: Antiinflammatory activity in cigarette smoke-predisposed BALB/c mouse model of NTHi-inflammation assessed as suppression of lung CXCL1/KC level at 5 and 10 mg/kg, ip administered post 1 and 24 hrs of NTHi-challenge by ELISA
[7] = tested on: Mus musculus; experiment: Anti-inflammatory activity in cigarette smoke-predisposed BALB/c mouse model of NTHi-inflammation assessed as reduction in neutrophil infiltration in BAL fluid at 10 mg/kg, ip administered at 1 and 24 hrs post NTHi-challenge by Wright-staining based differential cell counting method
[8] = Reduction of Keap1 gene expression in lungs of cigarette smoke-predisposed BALB/c mouse model of NTHi-inflammation at 5 and 10 mg/kg, ip administered post 1 and 24 hrs of NTHi-challenge by RT-PCR method
[9] = tested on: Mus musculus; experiment: Activation of Nrf2 in cigarette smoke-predisposed BALB/c mouse model of NTHi-inflammation assessed as increase in lung NQO1 expression at 5 and 10 mg/kg, ip administered post 1 and 24 hrs of NTHi-challenge by RT-PCR method
[10] = tested on: Mus musculus; experiment: Anti-inflammatory activity in cigarette smoke-predisposed BALB/c mouse model of NTHi-inflammation assessed as reduction in macrophage infiltration in BAL fluid at 10 mg/kg, ip administered at 1 and 24 hrs post NTHi-challenge by Wright-staining based differential cell counting method
[11] = Downregulation of MMP8 gene expression in lungs of cigarette smoke-predisposed BALB/c mouse model of NTHi-inflammation at 5 and 10 mg/kg, ip administered post 1 and 24 hrs of NTHi-challenge by RT-PCR method
[12] = tested on: Mus musculus; experiment: Activation of Nrf2 in cigarette smoke-predisposed BALB/c mouse model of NTHi-inflammation assessed as increase in lung GPx2 expression at 5 and 10 mg/kg, ip administered post 1 and 24 hrs of NTHi-challenge by RT-PCR method
[13] = Downregulation of MMP9 gene expression in lungs of cigarette smoke-predisposed BALB/c mouse model of NTHi-inflammation at 5 and 10 mg/kg, ip administered post 1 and 24 hrs of NTHi-challenge by RT-PCR method
[14] = tested on: Mus musculus; experiment: Antiinflammatory activity in cigarette smoke-predisposed BALB/c mouse model of NTHi-inflammation assessed as suppression of lung TNF-alpha level at 5 and 10 mg/kg, ip administered post 1 and 24 hrs of NTHi-challenge by ELISA
[15] = tested on: Mus musculus; experiment: Antiinflammatory activity in cigarette smoke-predisposed BALB/c mouse model of NTHi-inflammation assessed as reduction in lung inflammation score at 10 mg/kg, ip administered at 1 and 24 hrs post NTHi-challenge by hematoxylin and eosin staining-based method
[16] = tested on: Mus musculus; experiment: Activation of Nrf2 in cigarette smoke-predisposed BALB/c mouse model of NTHi-inflammation assessed as increase in lung GR expression at 5 and 10 mg/kg, ip administered post 1 and 24 hrs of NTHi-challenge by RT-PCR method

C=C1CC[C@@H]2[C@](C)(CO)[C@H](O)CC[C@@]2(C)[C@@H]1C/C=C1/C(=O)OC[C@H]1O
active: Activity [1] | Activity [2] | inhibition [3] | inhibition [4] | Activity [5] | inhibition [6] | Activity [7] | Activity [8] | Activity [9] | Activity [10] | Activity [11] | Activity [12] | Activity [13] | inhibition [14] | Activity [15] | Activity [16]
